According to ChEMBL document CHEMBL1201862, “PubChem BioAssay data set” (2004):
Activity calls are given as the source filed them.

Legend:
[1] = target: Sphingosine 1-phosphate receptor 2 (Homo sapiens, UniProt O95136); assay: Dose Response Cell Based Assay for Antagonists of the S1P2 Receptor. [Related pubchem assays: 856, 736 ]; type: functional
[2] = target: Luciferin 4-monooxygenase (Photinus pyralis, UniProt P08659); assay: Counter Screen for Luciferase-based Assay Positives. [Related pubchem assays: 620, 618, 411 ]
HT-1080 = assay: HT1080 cell viability loss – fluorescence readout (AID 620); type: functional, cell-based; conditions: Homo sapiens
[3] = target: T1, Sphingosine 1-phosphate receptor 4 (Homo sapiens, UniProt O95977); assay: Late stage fluorescence dose response cell-based screening assay for antagonists of the Sphingosine 1-Phosphate Receptor 4 (S1P4). [Related pubchem assays: 1524 (Confirmation screen (S1P4 antagonists).), 1510 (Primary screen (S1P4 antagonists).), 1853 (Summary AID (S1P4 antagonists).), 1692 (Dose response screen (S1P4 antagonists).)]; type: functional
T1 sequence (O95977 whole entry): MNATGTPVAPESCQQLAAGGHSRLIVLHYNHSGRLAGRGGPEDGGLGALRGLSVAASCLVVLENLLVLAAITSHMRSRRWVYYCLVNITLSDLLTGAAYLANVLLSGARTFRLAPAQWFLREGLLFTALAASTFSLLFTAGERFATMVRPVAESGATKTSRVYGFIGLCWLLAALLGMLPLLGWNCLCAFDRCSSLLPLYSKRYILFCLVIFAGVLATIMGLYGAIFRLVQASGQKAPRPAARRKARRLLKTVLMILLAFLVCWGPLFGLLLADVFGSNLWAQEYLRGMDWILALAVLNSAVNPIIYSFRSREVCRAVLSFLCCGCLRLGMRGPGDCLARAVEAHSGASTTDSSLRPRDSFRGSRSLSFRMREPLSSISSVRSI

[4] = target: T1, Sphingosine 1-phosphate receptor 4; assay: Fluorescence dose response cell-based high throughput screening assay for antagonists of the Sphingosine 1-Phosphate Receptor 4 (S1P4). [Related pubchem assays: 1524 (Confirmation in triplicates.), 1510 (Primary screen.)]; type: functional
[5] = target: Sphingosine 1-phosphate receptor 1 (Homo sapiens, UniProt P21453); type: functional;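 also: Tango beta-arrestin reporter U2OS cells stimulated with S1P near its EC80; inhibitor potency meaning antagonism of receptor activation by the natural agonist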
[6] = target: T2, Replicative DNA helicase DnaB (Mycobacterium tuberculosis, UniProt P9WMR3); assay: DnaB intein splicing inhibitors, dose response, biochemical, cell-free fluorescence (AID 449749); type: functional
T2 sequence (P9WMR3 whole entry): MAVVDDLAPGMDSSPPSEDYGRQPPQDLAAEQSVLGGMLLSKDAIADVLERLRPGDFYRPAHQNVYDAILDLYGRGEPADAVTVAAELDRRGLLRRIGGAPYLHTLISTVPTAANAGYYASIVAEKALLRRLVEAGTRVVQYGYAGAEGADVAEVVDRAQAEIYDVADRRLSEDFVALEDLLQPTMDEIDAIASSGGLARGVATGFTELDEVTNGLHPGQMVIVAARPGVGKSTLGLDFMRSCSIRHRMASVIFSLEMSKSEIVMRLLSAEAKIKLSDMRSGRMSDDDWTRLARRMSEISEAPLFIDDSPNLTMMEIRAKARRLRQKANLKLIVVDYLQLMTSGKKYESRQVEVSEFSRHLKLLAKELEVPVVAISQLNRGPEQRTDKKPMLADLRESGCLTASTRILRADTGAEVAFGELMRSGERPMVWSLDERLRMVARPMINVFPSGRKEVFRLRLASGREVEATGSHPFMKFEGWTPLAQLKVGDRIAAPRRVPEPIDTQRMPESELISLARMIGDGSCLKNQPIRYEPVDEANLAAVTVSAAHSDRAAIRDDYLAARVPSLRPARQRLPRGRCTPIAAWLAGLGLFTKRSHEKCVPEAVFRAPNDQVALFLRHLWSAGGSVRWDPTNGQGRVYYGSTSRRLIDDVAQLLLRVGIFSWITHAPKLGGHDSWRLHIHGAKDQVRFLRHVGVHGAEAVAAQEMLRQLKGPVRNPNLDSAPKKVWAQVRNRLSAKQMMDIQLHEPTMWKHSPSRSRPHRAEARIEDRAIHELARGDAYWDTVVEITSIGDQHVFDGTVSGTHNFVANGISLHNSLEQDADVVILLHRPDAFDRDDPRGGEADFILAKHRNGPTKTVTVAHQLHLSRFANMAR

Protein RecA = target: T3, Protein RecA (Mycobacterium tuberculosis, UniProt P9WHJ3); assay: Fluorescence Cell-Free Homogeneous Dose Retest to Identify Inhibitors of RecA-Intein Splicing Activity. [Related pubchem assays (depositor defined):AID2097, AID2223, AID489010, AID492950]; type: functional
T3 sequence (P9WHJ3 whole entry): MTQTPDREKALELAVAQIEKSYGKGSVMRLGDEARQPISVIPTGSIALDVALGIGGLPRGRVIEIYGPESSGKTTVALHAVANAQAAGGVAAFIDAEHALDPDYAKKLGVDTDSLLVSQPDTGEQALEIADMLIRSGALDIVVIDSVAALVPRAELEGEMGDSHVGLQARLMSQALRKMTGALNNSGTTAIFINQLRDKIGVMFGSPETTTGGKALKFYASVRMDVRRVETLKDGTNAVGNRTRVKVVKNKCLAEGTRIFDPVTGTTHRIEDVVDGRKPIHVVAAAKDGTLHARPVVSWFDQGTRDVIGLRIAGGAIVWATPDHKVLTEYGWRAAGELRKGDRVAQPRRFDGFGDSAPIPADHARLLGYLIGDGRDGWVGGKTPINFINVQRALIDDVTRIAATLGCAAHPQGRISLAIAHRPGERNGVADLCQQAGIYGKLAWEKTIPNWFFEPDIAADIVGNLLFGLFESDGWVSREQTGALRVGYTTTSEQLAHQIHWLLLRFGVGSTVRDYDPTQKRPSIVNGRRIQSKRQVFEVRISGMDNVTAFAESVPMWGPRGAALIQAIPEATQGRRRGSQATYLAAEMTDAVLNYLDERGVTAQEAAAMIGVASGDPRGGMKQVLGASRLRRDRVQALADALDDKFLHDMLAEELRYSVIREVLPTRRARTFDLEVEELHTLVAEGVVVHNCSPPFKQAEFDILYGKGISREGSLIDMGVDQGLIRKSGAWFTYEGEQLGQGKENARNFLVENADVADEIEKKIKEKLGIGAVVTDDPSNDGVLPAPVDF

[7] = target: Diphosphomevalonate decarboxylase (Streptococcus pneumoniae serotype 2 (strain D39 / NCTC 7466), UniProt Q9FD53); assay: diphosphomevalonate decarboxylase inhibitor confirmation – biochemical, cuvette format, coupled NADH fluorescence (AID 1028); type: functional
Vero = assay: inhibition of WNV-induced cytopathic effect – cell-based, CPE readout (AID 1621); type: functional; conditions: Chlorocebus sabaeus
[8] = target: T4, Eukaryotic translation initiation factor 2-alpha kinase 3 (Homo sapiens, UniProt Q9NZJ5); assay: Dose response cell-based high-throughput screening assay to measure PERK inhibition. [Related pubchem assays: 1416 ]; type: functional
T4 sequence (Q9NZJ5 whole entry): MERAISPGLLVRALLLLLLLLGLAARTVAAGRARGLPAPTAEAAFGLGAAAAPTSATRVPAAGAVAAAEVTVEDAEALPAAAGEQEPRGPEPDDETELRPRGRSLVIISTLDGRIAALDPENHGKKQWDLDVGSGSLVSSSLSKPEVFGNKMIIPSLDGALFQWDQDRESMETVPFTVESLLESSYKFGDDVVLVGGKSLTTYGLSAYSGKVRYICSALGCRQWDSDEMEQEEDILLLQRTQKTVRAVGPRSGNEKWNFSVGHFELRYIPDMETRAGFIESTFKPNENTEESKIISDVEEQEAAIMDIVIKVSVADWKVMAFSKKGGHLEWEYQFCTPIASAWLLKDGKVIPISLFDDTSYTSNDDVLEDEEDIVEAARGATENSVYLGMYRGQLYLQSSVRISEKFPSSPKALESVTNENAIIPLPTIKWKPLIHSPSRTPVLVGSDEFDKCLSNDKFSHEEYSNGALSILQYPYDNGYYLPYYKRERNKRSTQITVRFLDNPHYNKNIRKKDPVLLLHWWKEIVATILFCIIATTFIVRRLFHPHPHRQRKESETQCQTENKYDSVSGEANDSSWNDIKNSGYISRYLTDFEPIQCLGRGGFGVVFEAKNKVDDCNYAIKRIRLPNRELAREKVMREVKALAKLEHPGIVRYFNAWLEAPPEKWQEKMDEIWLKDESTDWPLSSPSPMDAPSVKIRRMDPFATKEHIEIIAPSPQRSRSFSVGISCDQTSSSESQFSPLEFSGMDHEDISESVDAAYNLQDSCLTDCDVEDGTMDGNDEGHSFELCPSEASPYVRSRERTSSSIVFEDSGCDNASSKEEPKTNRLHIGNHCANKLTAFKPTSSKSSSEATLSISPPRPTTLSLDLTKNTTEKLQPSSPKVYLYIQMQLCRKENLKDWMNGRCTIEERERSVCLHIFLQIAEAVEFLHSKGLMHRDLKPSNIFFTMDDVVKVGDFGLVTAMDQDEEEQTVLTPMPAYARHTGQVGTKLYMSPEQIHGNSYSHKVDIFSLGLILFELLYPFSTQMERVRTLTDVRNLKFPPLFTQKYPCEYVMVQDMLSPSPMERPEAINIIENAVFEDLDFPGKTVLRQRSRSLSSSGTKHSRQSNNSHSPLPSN

[9] = target: T4, Eukaryotic translation initiation factor 2-alpha kinase 3; assay: Counterscreen assay for PERK inhibitors: Dose response cell-based high throughput screening assay to measure inhibition of PERK at 6 hours. [Related pubchem assays: 1522, 1416 ]; type: functional
[10] = M. tuberculosis growth inhibition, HTS (AID 449762); type: functional
[11] = THP-1 cell cytotoxicity, dose response, cytotoxicity control for non-replicating M. tuberculosis project (AID 489025); type: functional
Genome polyprotein = Genome polyprotein (Hepatitis C virus, UniProt Q2Q167); assay: disruption of hepatitis C core self-association – biochemical, TR-FRET, dose response (AID 2159); parameters: species or system Hepacivirus hominis;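 also: blocks dimerization of HCV core protein measured by TR-FRET between tagged core106 pairs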
[12] = target: Induced myeloid leukemia cell differentiation protein Mcl-1 (Homo sapiens, UniProt Q07820); assay: blockers of MCL1 binding to BIM peptide – biochemical, fluorescence polarization, BIM-BH3 peptide, 1536-well, dose response (AID 2217)
Bcl-2-like protein 1 = Bcl-2-like protein 1 (Homo sapiens, UniProt Q07817); assay: blockers of BCLXL peptide binding – biochemical, fluorescence polarization, 1536-well, selectivity assay for MCL1 inhibitor project, dose response (AID 2218)
[13] = target: DNA (cytosine-5)-methyltransferase 1 (Homo sapiens, UniProt P26358); assay: inhibition of DNA methylation by DNMT1 – biochemical, fluorescent molecular beacon, confirmation (AID 602386); type: functional
[14] = target: T5, Small ubiquitin-related modifier 1 (Homo sapiens, UniProt P63165); assay: SUMO1 protein interaction blockers, potency – biochemical, fluorescence polarization, uHTS hits, dose response (AID 624382); type: functional; conditions: read-out: IC50_Mean
[15] = target: T5, Small ubiquitin-related modifier 1; assay: SUMO1 protein-protein binding blockers, potency – biochemical, FRET, dose response (AID 624383); type: functional; conditions: read-out: IC50_Mean
Albumin = Albumin (Bos taurus, UniProt P02769); assay: Counterscreen for inhibitors of T-cell receptor (TCR)-CD3 interaction: Fluorescence-based biochemical high throughput dose response assay to identify inhibitors of T-cell receptor (TCR)-CD3 interaction using a TAMRA-labeled BSA probe.; type: functional
Danio rerio = assay: In Vivo Angiogenesis Dose-Response Confirmation. [Related pubchem assays: 732 (Assay preceding this confirmatory assay.)]; type: functional, organism-based

T5 sequence (P63165 whole entry): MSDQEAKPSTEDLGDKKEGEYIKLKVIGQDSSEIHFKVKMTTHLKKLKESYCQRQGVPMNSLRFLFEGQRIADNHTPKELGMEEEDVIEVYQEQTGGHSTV
Sequence of Sphingosine 1-phosphate receptor 1 (P21453 whole entry): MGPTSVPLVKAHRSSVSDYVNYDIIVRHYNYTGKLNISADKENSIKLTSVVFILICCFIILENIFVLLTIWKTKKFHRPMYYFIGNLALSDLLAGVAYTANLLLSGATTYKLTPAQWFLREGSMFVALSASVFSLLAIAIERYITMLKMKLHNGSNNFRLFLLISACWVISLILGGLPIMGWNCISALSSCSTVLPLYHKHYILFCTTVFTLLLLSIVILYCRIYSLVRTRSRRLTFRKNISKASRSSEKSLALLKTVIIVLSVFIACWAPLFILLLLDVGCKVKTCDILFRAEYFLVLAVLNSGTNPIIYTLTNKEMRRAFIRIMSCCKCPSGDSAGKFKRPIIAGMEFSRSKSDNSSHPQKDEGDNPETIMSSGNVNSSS
Sequence of Albumin (P02769 whole entry): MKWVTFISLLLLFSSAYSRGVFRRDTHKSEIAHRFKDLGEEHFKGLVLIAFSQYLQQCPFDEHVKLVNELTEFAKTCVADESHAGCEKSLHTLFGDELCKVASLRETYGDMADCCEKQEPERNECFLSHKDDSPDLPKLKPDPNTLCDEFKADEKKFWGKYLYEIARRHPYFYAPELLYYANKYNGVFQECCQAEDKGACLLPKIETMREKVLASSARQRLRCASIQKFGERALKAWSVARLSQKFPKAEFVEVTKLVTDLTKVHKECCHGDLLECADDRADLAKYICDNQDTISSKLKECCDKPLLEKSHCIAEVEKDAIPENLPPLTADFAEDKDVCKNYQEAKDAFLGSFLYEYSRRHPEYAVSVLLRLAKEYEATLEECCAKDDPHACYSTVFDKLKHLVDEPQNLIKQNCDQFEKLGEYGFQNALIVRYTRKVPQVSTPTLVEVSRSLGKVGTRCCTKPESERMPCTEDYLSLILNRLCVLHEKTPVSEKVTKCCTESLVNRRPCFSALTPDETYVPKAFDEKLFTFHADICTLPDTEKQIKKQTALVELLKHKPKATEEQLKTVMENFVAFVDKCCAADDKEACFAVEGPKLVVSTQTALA
Sequence of Diphosphomevalonate decarboxylase (Q9FD53 whole entry): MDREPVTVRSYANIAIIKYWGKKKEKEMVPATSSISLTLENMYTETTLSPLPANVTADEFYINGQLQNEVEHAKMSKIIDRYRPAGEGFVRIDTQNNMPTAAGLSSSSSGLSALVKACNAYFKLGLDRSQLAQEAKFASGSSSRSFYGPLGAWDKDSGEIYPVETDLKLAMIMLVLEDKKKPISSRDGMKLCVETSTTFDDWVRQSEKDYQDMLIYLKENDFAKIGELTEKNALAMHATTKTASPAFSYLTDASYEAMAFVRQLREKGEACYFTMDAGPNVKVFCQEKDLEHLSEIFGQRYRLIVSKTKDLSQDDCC
Sequence of Sphingosine 1-phosphate receptor 2 (O95136 whole entry): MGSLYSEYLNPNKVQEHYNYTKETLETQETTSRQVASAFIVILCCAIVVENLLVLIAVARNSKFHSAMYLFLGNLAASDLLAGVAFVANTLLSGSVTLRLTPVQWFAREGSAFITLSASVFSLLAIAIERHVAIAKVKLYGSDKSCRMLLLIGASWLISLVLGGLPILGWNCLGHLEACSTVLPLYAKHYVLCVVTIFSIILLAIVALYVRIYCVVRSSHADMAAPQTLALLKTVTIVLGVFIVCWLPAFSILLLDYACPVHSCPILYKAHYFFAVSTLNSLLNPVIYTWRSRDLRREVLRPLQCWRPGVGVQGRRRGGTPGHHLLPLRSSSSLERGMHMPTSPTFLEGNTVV
Sequence of DNA (cytosine-5)-methyltransferase 1 (P26358 whole entry): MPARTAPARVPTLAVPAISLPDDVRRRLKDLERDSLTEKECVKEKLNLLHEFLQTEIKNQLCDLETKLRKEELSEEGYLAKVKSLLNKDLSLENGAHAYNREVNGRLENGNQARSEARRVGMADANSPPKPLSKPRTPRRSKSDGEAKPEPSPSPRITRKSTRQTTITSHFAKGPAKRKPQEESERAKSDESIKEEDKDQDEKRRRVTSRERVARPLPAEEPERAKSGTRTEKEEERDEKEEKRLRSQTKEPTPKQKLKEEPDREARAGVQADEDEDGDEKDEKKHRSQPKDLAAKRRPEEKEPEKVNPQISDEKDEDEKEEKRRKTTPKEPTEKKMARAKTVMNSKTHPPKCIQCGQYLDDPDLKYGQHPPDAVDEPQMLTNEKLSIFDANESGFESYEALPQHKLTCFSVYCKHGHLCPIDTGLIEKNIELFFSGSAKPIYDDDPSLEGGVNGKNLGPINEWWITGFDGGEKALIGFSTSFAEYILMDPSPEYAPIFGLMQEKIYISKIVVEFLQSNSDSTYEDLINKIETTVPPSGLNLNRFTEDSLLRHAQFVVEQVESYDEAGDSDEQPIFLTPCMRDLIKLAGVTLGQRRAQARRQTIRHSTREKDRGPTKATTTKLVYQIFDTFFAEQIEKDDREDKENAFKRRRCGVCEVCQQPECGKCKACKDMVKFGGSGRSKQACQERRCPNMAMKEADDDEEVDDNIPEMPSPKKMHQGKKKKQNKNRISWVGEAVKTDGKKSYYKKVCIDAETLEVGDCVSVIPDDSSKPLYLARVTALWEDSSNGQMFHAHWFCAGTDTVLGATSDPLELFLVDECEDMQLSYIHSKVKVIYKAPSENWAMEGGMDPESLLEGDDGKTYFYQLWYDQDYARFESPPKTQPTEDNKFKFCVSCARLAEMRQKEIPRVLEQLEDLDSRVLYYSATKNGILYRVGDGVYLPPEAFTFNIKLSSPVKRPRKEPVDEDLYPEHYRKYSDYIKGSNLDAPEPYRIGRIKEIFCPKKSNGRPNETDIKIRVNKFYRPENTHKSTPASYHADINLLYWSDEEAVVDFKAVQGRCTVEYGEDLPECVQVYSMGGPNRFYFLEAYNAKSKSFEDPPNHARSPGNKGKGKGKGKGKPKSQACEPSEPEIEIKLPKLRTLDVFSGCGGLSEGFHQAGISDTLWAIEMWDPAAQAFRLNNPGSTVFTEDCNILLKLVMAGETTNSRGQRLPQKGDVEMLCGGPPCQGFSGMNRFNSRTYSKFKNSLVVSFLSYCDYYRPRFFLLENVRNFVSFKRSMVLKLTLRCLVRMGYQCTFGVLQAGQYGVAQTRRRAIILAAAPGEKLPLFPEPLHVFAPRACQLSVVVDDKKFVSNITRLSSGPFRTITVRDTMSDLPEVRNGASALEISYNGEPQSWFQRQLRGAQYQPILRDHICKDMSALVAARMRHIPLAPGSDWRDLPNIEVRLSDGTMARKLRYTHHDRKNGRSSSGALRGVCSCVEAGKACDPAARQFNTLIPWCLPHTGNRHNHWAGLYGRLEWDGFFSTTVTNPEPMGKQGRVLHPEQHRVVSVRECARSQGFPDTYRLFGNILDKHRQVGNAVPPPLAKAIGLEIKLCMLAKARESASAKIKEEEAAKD
Sequence of Luciferin 4-monooxygenase (P08659 whole entry): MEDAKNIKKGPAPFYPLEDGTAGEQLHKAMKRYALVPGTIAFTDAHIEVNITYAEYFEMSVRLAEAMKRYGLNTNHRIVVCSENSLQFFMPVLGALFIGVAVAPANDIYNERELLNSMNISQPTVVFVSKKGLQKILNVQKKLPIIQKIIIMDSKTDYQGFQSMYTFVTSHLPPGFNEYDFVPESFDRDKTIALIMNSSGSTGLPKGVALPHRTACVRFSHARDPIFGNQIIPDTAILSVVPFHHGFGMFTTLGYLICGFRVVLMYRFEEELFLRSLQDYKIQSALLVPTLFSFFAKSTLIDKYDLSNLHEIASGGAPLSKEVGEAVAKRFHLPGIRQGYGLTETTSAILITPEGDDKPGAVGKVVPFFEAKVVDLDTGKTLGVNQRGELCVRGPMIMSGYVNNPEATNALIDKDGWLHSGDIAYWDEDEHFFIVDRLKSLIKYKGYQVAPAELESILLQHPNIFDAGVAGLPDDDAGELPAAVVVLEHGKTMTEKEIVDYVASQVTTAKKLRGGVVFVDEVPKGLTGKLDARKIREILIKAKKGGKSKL
Sequence of Bcl-2-like protein 1 (Q07817 whole entry): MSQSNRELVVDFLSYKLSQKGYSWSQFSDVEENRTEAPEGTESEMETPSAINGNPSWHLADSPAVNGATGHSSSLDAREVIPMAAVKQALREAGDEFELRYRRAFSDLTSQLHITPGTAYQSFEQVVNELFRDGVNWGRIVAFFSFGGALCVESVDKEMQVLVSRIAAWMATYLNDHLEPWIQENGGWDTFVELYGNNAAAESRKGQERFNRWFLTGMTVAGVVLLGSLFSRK
Sequence of Induced myeloid leukemia cell differentiation protein Mcl-1 (Q07820 whole entry): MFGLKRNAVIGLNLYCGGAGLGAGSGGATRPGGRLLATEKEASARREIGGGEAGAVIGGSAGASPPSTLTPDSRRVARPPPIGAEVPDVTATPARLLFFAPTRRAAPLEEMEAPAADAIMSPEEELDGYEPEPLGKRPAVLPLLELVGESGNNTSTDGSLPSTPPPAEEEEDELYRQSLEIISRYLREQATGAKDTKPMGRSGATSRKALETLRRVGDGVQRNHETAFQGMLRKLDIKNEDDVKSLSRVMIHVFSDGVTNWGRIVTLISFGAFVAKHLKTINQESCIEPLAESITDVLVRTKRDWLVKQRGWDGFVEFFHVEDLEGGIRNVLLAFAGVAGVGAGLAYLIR
Sequence of Genome polyprotein (Q2Q167 whole entry): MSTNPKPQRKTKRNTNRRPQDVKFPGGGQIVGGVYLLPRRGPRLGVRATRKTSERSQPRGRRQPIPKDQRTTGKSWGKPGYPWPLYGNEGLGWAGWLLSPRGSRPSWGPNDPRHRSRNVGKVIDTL

Compound: COc1ccc(NC(=O)/C(Cl)=C(/Cl)S(=O)(=O)Cc2ccc(C)cc2)cn1
- IC50 [1]: 1.48 µM (active)
- EC50 [2]: < 0.2 µM (active)
- EC50 (HT-1080): 18.8 µM (active)
- IC50 [3]: 15.4 µM (not active)
- IC50 [4]: 0.564 µM (active)
- IC50 [5]: 7.07 µM (active)
- AC50 [6]: 4.27 µM (active)
- EC50 (Protein RecA): 2.71 µM (active)

Compound: O=C(c1ccc(-n2sc3ccccc3c2=O)cc1)N1CCCCC1
- IC50 [7]: 14.3 µM (active)

Compound: COc1cc(CNC(C)(C)CO)cc(Br)c1OCc1ccc(Cl)cc1
- IC50 (Vero): 19.1 µM (active)

Compound: O=Cc1ccc(-c2ccc(Cl)cc2Cl)[nH]1
- EC50 [8]: > 55.7 µM (not active)
- EC50 [9]: > 55.7 µM (not active)
- IC50 [10]: > 100 µM (active)
- CC50 [11]: > 40 µM (active)

Compound: O=C1COc2ccc(C(=O)COC(=O)/C=C/c3ccc(Br)o3)cc2N1
- IC50 (Genome polyprotein): > 49.8 µM (not active)
- IC50 [12]: > 4.03 µM (active)
- IC50 (Bcl-2-like protein 1): > 109 µM (not active)
- IC50 [13]: 12.2 µM (active)
- IC50 [14]: > 66.6 µM (inactive)
- IC50 [15]: 4.57 µM (active)
- IC50 (Albumin): > 94.1 µM (inactive)

Compound: O=C1Nc2ccccc2/C1=C1/Nc2ccccc2C1=O [INDIRUBIN]
- IC50 (Danio rerio): < 0.1 µM (not active)
